Measured values from patent EP0227941A1, “1-Phenyl-4-(1H)-pyridazinimines, their preparation and use” (BASF Aktiengesellschaft, priority 1985, dated 1987).
Where a name gives a salt, the structure may show the parent alone.

Columns and labels:
Format in all cases: biochemical, Ratten
[1] = target: T1, Synaptosomen-Aufnahme von Noradrenalin (Rattus norvegicus, UniProt Q63380); assay: Inhibition of noradrenaline uptake in rat brain synaptosomes (hippocampus, 3H-noradrenaline)
T1 construct: Durch differentielle Zentrifugation wurden Synaptosomen erhalten; from tissue; host or cells: rat brain hippocampus synaptosomes
T1 sequence (Q63380 1-617): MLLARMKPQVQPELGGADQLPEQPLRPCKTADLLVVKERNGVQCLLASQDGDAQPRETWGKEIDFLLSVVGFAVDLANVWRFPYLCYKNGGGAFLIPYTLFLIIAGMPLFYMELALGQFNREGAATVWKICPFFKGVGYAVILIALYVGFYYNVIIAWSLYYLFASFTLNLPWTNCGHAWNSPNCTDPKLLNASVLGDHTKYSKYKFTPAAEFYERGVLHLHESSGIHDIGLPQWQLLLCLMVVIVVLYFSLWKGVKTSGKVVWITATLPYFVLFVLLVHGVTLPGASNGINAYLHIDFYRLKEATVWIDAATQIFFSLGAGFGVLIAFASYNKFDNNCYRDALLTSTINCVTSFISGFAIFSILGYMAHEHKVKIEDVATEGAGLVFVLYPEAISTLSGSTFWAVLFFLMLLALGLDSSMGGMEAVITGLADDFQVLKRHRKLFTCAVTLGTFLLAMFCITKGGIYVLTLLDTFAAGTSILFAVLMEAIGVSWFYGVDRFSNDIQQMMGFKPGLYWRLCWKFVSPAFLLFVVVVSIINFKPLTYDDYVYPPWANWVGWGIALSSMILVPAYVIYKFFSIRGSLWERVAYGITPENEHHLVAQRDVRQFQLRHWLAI
From the text: (§1) Hemmung der Neurotransmitter-Aufnahme in Rattenhirn-Synaptosomen
(§2) Hippocampus und Cortex aus Rattenhirn wurden präpariert und in 0,32 M Sucrose-Lösung homogenisiert. Durch differentielle Zentrifugation wurden Synaptosomen erhalten, die in Pufferlösung suspendiert wurden. Die Synaptosomen sind in der Lage, aus dem umgebenden Medium zugefügte Neurotransmittersubstanzen (z.B. Noradrenalin oder Serotonin) aktiv aufzunehmen. Dieser Vorgang ist durch uptake-Hemmer konzentrationsabhängig antagonisierbar. Die Synaptosomen wurden mit den Testsubstanzen in verschiedenen Konzentrationen versetzt und anschließend mit ³H-Noradrenalin (Hippocampus) bzw. ³H-Serotonin (Cortex) bei 37°C inkubiert. Die Substratkonzentration betrug ca. 10 nM. Nach Stoppen der Aufnahme durch Verdünnen mit eisgekühlter Pufferlösung wurden die Synaptosomen abzentrifugiert und die ³H-Aktivität im Sediment gemessen. Der Blindwert wird durch Inkubation bei 0°C ermittelt.
(§3) Aus den verschiedenen Inhibitor-Konzentrationen gegen Kontrolle ermittelten Hemmwerten wurde durch lineare Regression nach logit-log-Transformation die mittlere Hemmkonzentration IC₅₀ berechnet.

[2] = target: T2, Synaptosomen-Aufnahme von Serotonin (Rattus norvegicus, UniProt P31652); assay: Inhibition of serotonin uptake in rat brain synaptosomes (cortex, 3H-serotonin)
T2 construct: Durch differentielle Zentrifugation wurden Synaptosomen erhalten; from tissue; host or cells: rat brain cortex synaptosomes
T2 sequence (P31652 whole entry): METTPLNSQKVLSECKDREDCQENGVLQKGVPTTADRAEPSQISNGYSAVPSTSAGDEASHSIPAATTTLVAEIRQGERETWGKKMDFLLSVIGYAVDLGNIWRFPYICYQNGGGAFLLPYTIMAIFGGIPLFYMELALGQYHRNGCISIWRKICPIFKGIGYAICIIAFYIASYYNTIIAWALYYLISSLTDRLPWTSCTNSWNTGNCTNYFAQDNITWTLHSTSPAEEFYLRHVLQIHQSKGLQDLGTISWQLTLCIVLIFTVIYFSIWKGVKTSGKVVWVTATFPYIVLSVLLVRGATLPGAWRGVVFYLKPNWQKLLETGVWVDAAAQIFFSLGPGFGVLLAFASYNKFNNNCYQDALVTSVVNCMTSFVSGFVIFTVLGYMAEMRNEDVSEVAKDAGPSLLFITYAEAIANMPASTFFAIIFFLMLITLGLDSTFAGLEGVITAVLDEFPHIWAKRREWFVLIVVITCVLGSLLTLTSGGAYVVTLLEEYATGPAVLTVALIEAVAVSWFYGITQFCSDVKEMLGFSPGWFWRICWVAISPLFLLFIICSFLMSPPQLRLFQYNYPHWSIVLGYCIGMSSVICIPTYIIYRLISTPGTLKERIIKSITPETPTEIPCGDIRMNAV
From the text: as §1, §2, §3

Monoaminoxidase Typ A = target: T3, Monoaminoxidase Typ A (Rattus norvegicus, UniProt P21396); assay: Inhibition of monoamine oxidase type A in rat brain homogenate (14C-tryptamine)
T3 construct: Die Bestimmung der Monoaminoxidase erfolgte in verdünntem Rattenhirnhomogenat; from tissue; host or cells: rat brain homogenate
T3 sequence (P21396 1-526): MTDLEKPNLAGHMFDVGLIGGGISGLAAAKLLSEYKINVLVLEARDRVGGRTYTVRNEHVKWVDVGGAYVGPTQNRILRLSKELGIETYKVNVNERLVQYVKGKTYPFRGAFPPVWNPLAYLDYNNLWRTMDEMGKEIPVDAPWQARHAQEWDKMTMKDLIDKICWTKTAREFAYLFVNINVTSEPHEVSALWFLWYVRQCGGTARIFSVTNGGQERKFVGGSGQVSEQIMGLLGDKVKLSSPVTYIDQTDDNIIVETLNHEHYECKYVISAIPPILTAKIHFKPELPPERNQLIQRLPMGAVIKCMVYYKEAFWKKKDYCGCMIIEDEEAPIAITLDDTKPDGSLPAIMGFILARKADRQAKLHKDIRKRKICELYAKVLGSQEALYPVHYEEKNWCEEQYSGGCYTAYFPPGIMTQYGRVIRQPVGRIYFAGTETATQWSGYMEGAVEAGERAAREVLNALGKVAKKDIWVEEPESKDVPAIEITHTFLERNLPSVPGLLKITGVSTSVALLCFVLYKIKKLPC
Method: (§4) Hemmung der Monoaminoxidase
(§5) Die Bestimmung der Monoaminoxidase erfolgte in verdünntem Rattenhirnhomogenat dem 1. unterschiedliche Konzentrationen der zu prüfenden Testsubstanzen und 2. für die Bestimmung der Monoaminoxidase Typ A ¹⁴C-Tryptamin in einer Konzentration von 0,4 µmol, zur Bestimmung der Monoaminoxidase Typ B ¹⁴C-Phenylethylamin in einer Konzentration von 0,25 µmol zugesetzt wurde. Dieser Ansatz wurde 20 Minuten bei 37°C inkubiert. Die Reaktion wird durch 0,1 n HCl gestoppt und die Reaktionsprodukte nach Extraktion in Toluol-Szintillator (PPO + POPOP in Toluol) bestimmt. Der Blindwert wird in analogen Ansätzen mit einer Inkubationszeit von t = 0 Minuten bestimmt.
(§6) Aus den bei den verschiedenen Inhibitorkonzentrationen gegen die Kontrolle ermittelten Hemmwerten wurde durch lineare Regression nach logit-log-Transformation die mittlere Hemmkonzentration (IC₅₀) berechnet.

Monoaminoxidase Typ B = target: T4, Monoaminoxidase Typ B (Rattus norvegicus, UniProt P19643); assay: Inhibition of monoamine oxidase type B in rat brain homogenate (14C-phenylethylamine)
T4 construct: Die Bestimmung der Monoaminoxidase erfolgte in verdünntem Rattenhirnhomogenat; from tissue; host or cells: rat brain homogenate
T4 sequence (P19643 1-520): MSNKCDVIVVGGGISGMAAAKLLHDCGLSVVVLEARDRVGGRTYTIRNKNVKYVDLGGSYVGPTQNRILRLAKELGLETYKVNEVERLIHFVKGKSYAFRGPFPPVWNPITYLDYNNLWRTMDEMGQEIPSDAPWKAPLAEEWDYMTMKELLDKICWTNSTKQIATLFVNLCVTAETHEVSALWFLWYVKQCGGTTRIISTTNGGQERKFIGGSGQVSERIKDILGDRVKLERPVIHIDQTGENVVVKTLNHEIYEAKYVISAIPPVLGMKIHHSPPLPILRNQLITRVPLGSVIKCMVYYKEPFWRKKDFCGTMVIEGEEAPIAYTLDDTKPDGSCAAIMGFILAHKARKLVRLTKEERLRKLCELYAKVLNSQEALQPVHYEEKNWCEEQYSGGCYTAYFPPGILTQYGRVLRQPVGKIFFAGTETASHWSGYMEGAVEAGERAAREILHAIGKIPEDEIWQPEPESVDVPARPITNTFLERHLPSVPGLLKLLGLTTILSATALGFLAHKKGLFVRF
Method: as §4, §5, §6

[3] = Quotient IC50 Referenzverbindung / IC50 Beispielverbindung

Cc1ccc(-n2ccc(=N)cn2)cc1F [Beispiel 11, 1-(3-Fluor-4-methylphenyl)-4-(1H)-pyridazinimin-hydrochlorid]
Hemmung der Synaptosomen-Aufnahme von Noradrenalin r.W. (relative Wirksamkeit) [1, 3]: 1.2
IC50 ([1]; rat hippocampus synaptosomes, 3H-Noradrenalin ca. 10 nM, 37°C, read-out: Hemmung der Synaptosomen-Aufnahme von Noradrenalin IC50): 0.026 µM
Hemmung der Synaptosomen-Aufnahme von Serotonin r.W. (relative Wirksamkeit) [2, 3]: 7.3
IC50 ([2]; rat cortex synaptosomes, 3H-Serotonin ca. 10 nM, 37°C, read-out: Hemmung der Synaptosomen-Aufnahme von Serotonin IC50): 0.1 µM
Hemmung der Monoaminoxidase Typ A r.W. (relative Wirksamkeit) (Monoaminoxidase Typ A; [3]): 2.0
IC50 (Monoaminoxidase Typ A; rat brain homogenate, 14C-Tryptamin, 20 min 37°C, read-out: Hemmung der Monoaminoxidase Typ A IC50): 2.1 µM
Hemmung der Monoaminoxidase Typ B r.W. (relative Wirksamkeit) (Monoaminoxidase Typ B; [3]): 9.6
IC50 (Monoaminoxidase Typ B; rat brain homogenate, 14C-Phenylethylamin, 20 min 37°C, read-out: Hemmung der Monoaminoxidase Typ B IC50): 5.1 µM
